Data on two substances can be found in patent US20210379158A1, “METHOD FOR PREVENTING OR TREATING HEART FAILURE BY ADMINISTERING A MEDICAMENT CONTAINING AN ANTAGONIST OF CORTICOTROPIN RELEASING HORMONE RECEPTOR 2 (CRHR2)” (RaQualia Pharma Inc., priority 2017, published 2021).

No end group written: not given here.

In series [1] the test system is Crhr2. In words: Pressure overload-induced cardiac dysfunction (TAC) in mice, continuous infusion initiated 1 wk after TAC. The series is classed as in vivo, mouse. The method, then:
(§1) 8-10-week-old male mice were anesthetized with 50 mg/kg sodium pentobarbital, and osmotic minipumps (Alzet) containing Ucn2 (25, 50, 100 ng/g/day; Peptide Institute) or antisauvagine-30 (100 ng/g/day; Medical & Biological Laboratories) were implanted subcutaneously in the back for 4 wk.
TAC was performed under anesthesia and intubation. The chest was opened to visualize the aortic arch. The transverse aorta was then ligated between the right innominate and left common carotid arteries against a blunted 24-G needle with a 7-0 suture. The sham procedure was identical except that the aorta was not ligated.
(§2) Transthoracic echocardiography was performed on mice anesthetized with 50 mg/kg sodium pentobarbital. The left ventricular (LV) end-systolic diameter and the LV end-diastolic diameters were measured to calculate the % LV fractional shortening (% FS) in M-mode using an Acuson Sequoia C-512 (Siemens) with a 15-MHz probe. Systolic blood pressure (SBP) was measured by tail cuff method with an automatic sphygmomanometer (BP98A; Saffron) while the mice were restrained.
(§3) Mouse plasma Ucn2 and BNP were quantified by a mouse Ucn2 ELISA kit (Yanaihara), and by a BNP Enzyme Immunoassay kit (RayBiotech Inc.), respectively, according to the manufacturer's instructions.
Tissue samples were embedded in OCT compound (Sakura Finetek) and snap-frozen in liquid nitrogen. Left ventricular myocardium sections (6 μm slices) were stained with Picro-Sirius red with standard protocols and viewed with a BX51 microscope (Olympus). Cardiac fibrosis in 20 random images was quantified in ImageJ software.
We next investigated whether treatment with the Crhr2 antagonist, antisauvagine-30 (Rühmann et al., 1998, Proc. Natl. Acad. Sci. USA. 95:15264-15269), would attenuate the progression of established cardiac hypertrophy in mice. For this, continuous antisauvagine-30 infusion was initiated 1 wk after TAC surgery (FIG. 19).

Series [2] relates to Crhr2. In words: Continuous Ucn2 infusion through subcutaneous osmotic pump in mice for 4 wk. It is filed as in vivo, mouse. The method, then:
as §1, §2, §3
To examine the effect of long-term Ucn2 up-regulation in vivo, we implanted mice with osmotic pumps that release Ucn2.

Series [3] has as its system Crhr2. Nature of the series: Continuous Ucn2 infusion in cardiomyocyte-specific Crhr2 knockout mice and control mice. The series is classed as in vivo, mouse.
Source text: Crhr2^tm1a(KOMP)Wtsi mice on a C57BL/6 background were generated by the Knock Out Mice Program (KOMP) at the University of California Davis (Davis, Calif.) and Children's Hospital Oakland Research Institute (Oakland, Calif.). Crhr2^tm1a(KOMP)Wtsi mice were bred with mice expressing Flp recombinase to obtain Crhr2 conditional KO mice (Crhr2^flox/flox mice). Crhr2^flox/flox mice were backcrossed at least 10 times to wild-type C57BL/6 genetic background mice. Tamoxifen-inducible, cardiomyocyte-specific Crhr2 knockout mice (cmc-Crhr2-KOs) were generated by intercrossing the αMHC-CreERT2 line to Crhr2^flox/flox mice (Takefuji et al., 2012, Circulation. 126:1972-1982). Cre-mediated recombination of floxed alleles was induced with an intraperitoneal injection of 1 mg tamoxifen dissolved in 100 μl Miglyol for 5 consecutive days. Vehicle-treated mice received Miglyol only, and αMHC-CreERT2+/−-Crhr2^wt/wt mice were used as controls. Experiments were performed 2 wk after the end of induction.
as §1, §2
To examine the functional significance of Crhr2 in cardiomyocytes in vivo, we generated mice with tamoxifen-inducible cardiomyocyte-specific Crhr2 deficiency (cmc-Crhr2-KO) by mating αMHC-CreERT2 mice with Crhr2^flox/flox mice.

The conditions of series [4]: acute intravenous injection; cited from earlier work.

With antisauvagine-30, the “plasma BNP” value with Crhr2 [1] (TAC mice, 100 ng/g/day infusion from 1 wk after TAC, day 35, FIG. 22) is “strong reduction”. The “cardiac hypertrophy (left ventricular weight/tibia length ratio)” value in the series with Crhr2 [1] (TAC mice, 100 ng/g/day infusion from 1 wk after TAC, day 35, FIG. 23) is “strong reduction”. Besides, the “cardiac fibrosis (fibrosis area)” value with Crhr2 [1] (TAC mice, 100 ng/g/day infusion from 1 wk after TAC, day 35, FIG. 24) is recorded as “strong reduction”. Moreover, in the series on Crhr2 [1] (TAC mice, 100 ng/g/day infusion from 1 wk after TAC, FIG. 20), the systolic blood pressure result is given as “without significantly affecting systolic blood pressure”. The “cardiac output (left ventricular fractional shortening)” value in the series on Crhr2 [1] (TAC mice, 100 ng/g/day infusion from 1 wk after TAC, FIG. 21) is “protected mice from further deterioration of cardiac output”.

With “urocortin 2 (VILSLDVPIGLLRILLEQARYKAARNQAATNAQILAHV; ends and bridges not checked; UniProt Q99ML8 73-110, looked up) [Ucn2, Ligand/agonist of Crhr2, obtained from Peptide Institute]”, in the series on Crhr2 [2] (4 wk Ucn2 infusion 100 ng/g/day, FIG. 8), the “left ventricular fractional shortening” value was “decrease in left ventricular fractional shortening”. Further, the systolic blood pressure result with Crhr2 [2] (4 wk Ucn2 infusion 100 ng/g/day, FIG. 9) is given as “without significantly affecting systolic blood pressure”. In addition, the “blood levels of brain natriuretic peptide (BNP)” value in the series with Crhr2 [2] (4 wk Ucn2 infusion 100 ng/g/day, FIG. 10) is “significantly increased”. Further, the “cardiac hypertrophy, left ventricular weight to tibia length ratio” value in the series on Crhr2 [2] (4 wk Ucn2 infusion 25, 50 or 100 ng/g/day, FIGS. 6 and 7) was “increased left ventricular weight to tibia length ratio in a dose-dependent manner”. The “circulating Ucn2 levels” value with Crhr2 [2] (after 4 wk of sustained Ucn2 infusion (25, 50 or 100 ng/g/day), osmotic pump, blood, FIG. 5) was “elevated similar to those observed after TAC”. Further, the fractional shortening decrease result with Crhr2 [3] (cmc-Crhr2-KO mice, 4 wk of continuous Ucn2 infusion 100 ng/g/day, FIG. 13) is given as “significantly attenuated”. Further, the “Ucn2-induced hypertrophic response (left ventricular weight/tibia length ratio)” value with Crhr2 [3] (cmc-Crhr2 KO mice, 4 wk Ucn2 100 ng/g/day, FIG. 12) is recorded as “failed to show a Ucn2-induced hypertrophic response”. Moreover, the fractional shortening result in the series with Crhr2 [3] (control mice, 4 wk of continuous Ucn2 infusion 100 ng/g/day, FIG. 13) is “decreased fractional shortening”. Besides, in the series with Crhr2 [1] (4 wk of sustained Ucn2 infusion initiating 1 wk after TAC surgery), the TAC-induced cardiac dysfunction entry is listed as “accelerated TAC-induced cardiac dysfunction”. In addition, the cardiac contraction result in series [4] is “accelerate cardiac contraction”.
